Source: patent US8629251B2, “Specific detection and quantification of phosphatidic acid using an Arabidopsis trigalactosyldiacylglycerol-4 (TGD4) protein” (Board of Trustees of Michigan State University, priority 2008, dated 2014)

Tests used:
Type in all cases: binding
[1] = target: T1, Arabidopsis TGD2, DsRed-TGD2C WT (DR-WT) fusion protein, residues 119-381, SEQ ID NO:107 (Arabidopsis thaliana, UniProt Q9LTR2); assay: Liposome-association assay (mixed PA/PC liposomes), DsRed-TGD2C WT
T1 construct: made in house; host or cells: Escherichia coli BL21 (DE3)
T1 sequence (Q9LTR2 119-381): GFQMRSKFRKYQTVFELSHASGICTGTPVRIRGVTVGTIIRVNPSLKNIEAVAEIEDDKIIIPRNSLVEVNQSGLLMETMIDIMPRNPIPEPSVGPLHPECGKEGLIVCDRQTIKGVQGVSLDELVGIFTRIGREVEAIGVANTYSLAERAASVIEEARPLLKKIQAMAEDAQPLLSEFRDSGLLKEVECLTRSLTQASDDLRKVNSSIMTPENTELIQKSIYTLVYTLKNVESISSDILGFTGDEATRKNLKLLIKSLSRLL
Method: FIG. 2A: Analysis by liposome-association assay. A mixture of dioleoyl-PA and dioleoyl-PC was used where the weight percent of PA was varied from 0-100% (wt/wt), maintaining the total lipid invariant at 250 μg. 1 μg protein was used. P, protein recovered in the absence of lipids.
In this assay, purified recombinant proteins were incubated with liposomes for 30 min at 30° C. before centrifugation at 20,000 g for 10 min to pellet the liposomes. Proteins bound to the liposomes were found associated with the lipid pellet, whereas non-binding proteins remained in the supernatant. In an effort to determine the optimal concentration of PA required for high specificity binding, a PA/PC liposome mixture containing varying weight fractions of PA was prepared and incubated with DsRed-TGD2CWT or DsRed alone.
(§1) The liposome association assay was performed as previously reported. (31). Briefly, lipids (dioleoyl-phosphatidylcholine, DOPC or dioleoyl-PA, DOPA) were incubated in TBS (50 mM Tris-HCl, pH 7; 0.1 M NaCl) at 37° C. for an hour followed by vigorous vortexing for 5 min. The liposomes were precipitated at 20,000 g and washed twice with ice-cold TBS.
(§2) Liposomes (200 μg) were mixed with purified DsRed-TGD2 fusion protein and TBS to make a final 100 μL solution. The mixture was incubated at 30° C. for 30 min and washed twice with ice-cold TBS by centrifugation at 20,000 g at 4° C. The liposome pellet mixed with sample buffer was analyzed by SDS-PAGE (28). Immuno-detection of the His-tagged protein was accomplished using the above mentioned Penta-His antibody at 1:15,000 and the anti mouse antibody at 1:75,000 dilution.
(§3) The protein band was visualized by chemiluminescent detection kit from Sigma. The autoradiography film was scanned, distinct protein bands were quantified using computer software Multi Gauge V3.0 (Fujifilm USA, Valhalla, N.Y.) and resulted data were plotted and analyzed by OriginPro8 (Origin lab corporation, Northampton, Mass.).

[2] = target: Arabidopsis TGD2, DsRed-TGD2C D2 (Δ221-225, SEQ ID NO:46) (Arabidopsis thaliana, UniProt Q9LTR2, DEL221-225); assay: Liposome-association assay, TGD2C D2 (Δ221-225); conditions: FIG. 3C
Method: as §1, §2, §3

[3] = target: T2, Arabidopsis TGD2, DsRed-TGD2C T8 (residues 201-225, SEQ ID NO:12) (Arabidopsis thaliana, UniProt Q9LTR2); assay: Protein-lipid overlay assay, minimal domain; conditions: FIG. 4B; compared to DR-WT
T2 sequence (Q9LTR2 201-225): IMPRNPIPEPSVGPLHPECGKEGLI
Method: Membrane lipid strips were purchased from Echelon Biosciences (Salt Lake City, Utah). The strips were first blocked with 3% bovine serum albumin in TBST (10 mM Tris-HCl, pH 8.0, 150 mM NaCl, and 0.25% Tween-20) for two hours and incubated in 0.5 μg/mL DsRed-TGD2 fusion protein solution in the blocking buffer at 4° C. overnight. The strips were washed 10 min for 3 times with TBST the next day and soaked in 3% bovine serum albumin in TBST with a Penta-His mouse monoclonal antibody (Sigma-Aldrich, St. Louis, Mo.) at 1:2,000 dilution at 4° C. overnight. The strips were washed twice with TBST and soaked in 3% bovine serum albumin in TBST with horseradish peroxidase-conjugated anti mouse antibody (Bio-Rad, Hercules, Calif.) at 1:20,000 dilution for an hour at room temperature. Following washing with TBST for 1 hour, the protein was detected by using the chemiluminescent detection system (Sigma-Aldrich).

[4] = target: T3, Arabidopsis TGD4, TGD4N-DsRED-His (N-terminal fragment 1-286, SEQ ID NO:130) (Arabidopsis thaliana, UniProt Q9M903); assay: Liposome association assay, TGD4N-DsRED-His; conditions: dioleoyl-PtdOH/dioleoyl-PtdCho liposomes, 0 to 80% PtdOH, FIG. 19B
T3 construct: made in house; host or cells: Escherichia coli BL21 (DE3)
T3 sequence (Q9M903 1-286): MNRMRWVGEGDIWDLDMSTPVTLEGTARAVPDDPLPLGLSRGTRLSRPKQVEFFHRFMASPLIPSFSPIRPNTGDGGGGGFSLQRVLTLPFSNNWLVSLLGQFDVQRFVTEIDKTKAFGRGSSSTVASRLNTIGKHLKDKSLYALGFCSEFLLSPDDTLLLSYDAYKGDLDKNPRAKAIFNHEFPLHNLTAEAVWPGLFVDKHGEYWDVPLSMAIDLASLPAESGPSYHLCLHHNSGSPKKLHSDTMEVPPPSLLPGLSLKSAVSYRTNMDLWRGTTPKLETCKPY
Method: Liposome Association Assay:
The liposome association assay was adapted from (Awai et al., 2006, Lu and Benning, 2009) with minor modifications. Dioleoyl-PtdCho and PtdOH with different acyl chain lengths and desaturation levels were used for making liposomes. In other liposomes 1-palmitoyl-2-(12-((7-nitro-2-1,3-benzoxadiazol-4-yl)amino)dodecanoyl)-sn-glycero-3-phosphate (NBD-PtdOH; Avanti, Alabaster, Ala.) was used. The lipids were mixed at indicated ratios to give a total lipid amount of 250 μg. The lipids were dried under a stream of nitrogen, resuspended in 0.5 ml TBS buffer with 0.2 M choline chloride and hydrated at 37° C. for 1 hour followed by vigorous vortexing for 2 minutes. The resulting multi-lamellar vesicles were centrifuged at 13,000×g for 10 minutes and then washed once with TBS buffer containing 0.2 M choline chloride. The liposomes were resuspended into 100 μl TBS buffer with 0.2 M choline chloride and incubated with 2 μg purified DsRED-TGD4-His protein and its derivatives. The protein liposome mixture was incubated on ice for 30 minutes followed by centrifugation at 13,000×g for 10 minutes and two washes with 500 μl TBS containing 0.2 M choline chloride. The resulting protein-liposome pellet was resuspended in 20 μl 2× Laemmli buffer (Laemmli, 1970) and processed by SDS-PAGE (Shapiro and Maizel, 1969).

[5] = DR-WT as quantification control, mixed PA/PC liposomes, FIGS. 5A-5C

Chain of Arabidopsis TGD2, DsRed-TGD2C D2 (Δ221-225, SEQ ID NO:46) (Q9LTR2 other isoform, or with tags, fused parts or gaps DEL221-225): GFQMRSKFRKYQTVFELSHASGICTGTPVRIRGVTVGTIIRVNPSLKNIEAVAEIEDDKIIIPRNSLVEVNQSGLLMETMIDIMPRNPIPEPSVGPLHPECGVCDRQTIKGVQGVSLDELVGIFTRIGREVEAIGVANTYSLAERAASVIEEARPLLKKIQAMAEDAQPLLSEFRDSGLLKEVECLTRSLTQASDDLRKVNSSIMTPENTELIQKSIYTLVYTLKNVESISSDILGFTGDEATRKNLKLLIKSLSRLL

CCCCCCCC/C=C\CCCCCCCC(=O)OC[C@H](COP(=O)(O)O)OC(=O)CCCCCCC/C=C\CCCCCCCC [PA, phosphatidic acid]
Hill number, PA binding [1, 5]: 2.8
modified Kd, PA binding [1, 5]: 37.66 mol %
binding to PA or PC ([1]; PC, PA/PC or PA liposomes, FIG. 3B): significant binding
Hill number, PA binding ([1]; dioleoyl-PA/dioleoyl-PC liposomes, FIG. 2B): 5.8
PA binding [2]: decreased binding activity dramatically
PA binding on membrane strip [3]: binds PA on the membrane strip, with apparent lower affinity
PtdOH binding affinity [4]: comparable to the full-length protein DsRED-TGD4-His
